#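 Cells were grown in 96-well plates and exposed to each compound for 48 hours at five concentrations; endpoints were interpolated linearly between bracketing concentrations, or set to the highest concentration if not reached. The concentration for 50% growth inhibition is given as GI50.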 Activity calls are given as the source filed them. No stated cut-off is given here; in the data, active = GI50 up to about 1.1 µM and inactive = higher.
# How the values were obtained:
# Assay in all cases: NCI-60 cell line screen, 48 h
# [1] = tested on: 786-0
# [2] = tested on: MOLT-4
# [3] = tested on: NCI-H23
# [4] = tested on: HCT-15
# [5] = tested on: IGROV-1
# [6] = tested on: HOP-62
# [7] = tested on: COLO 205
# [8] = tested on: SF-295
# [9] = tested on: CCRF-CEM
# [10] = tested on: U-251
# [11] = tested on: SW-620
# [12] = tested on: SF-268
# [13] = tested on: NCI-H522
# [14] = tested on: NCI-H226
# [15] = tested on: UACC-257
# [16] = tested on: SF-539
# [17] = tested on: CAKI-1
Structure (SMILES),GI50 [1],GI50 [2],GI50 [3],GI50 [4] [µM],GI50 [5],GI50 [6],GI50 [7],GI50 [8],GI50 [9],GI50 [10],GI50 [11],GI50 [12],GI50 [13],GI50 [14],GI50 [15],GI50 [16],GI50 [17]
COc1ccc(C2=NN(c3ccccc3)C[N+](c3ccc(OC)cc3)=N2)cc1,49.9 µM (inactive),20.3 µM (inactive),29.9 µM (inactive),43.7,21.3 µM (inactive),66.1 µM (inactive),> 10 µM (inactive),59.4 µM (inactive),23.2 µM (inactive),20.4 µM (inactive),24.5 µM (inactive),35.9 µM (inactive),15.1 µM (inactive),15.7 µM (inactive),76.2 µM (inactive),–,–
CN1N=C2c3ccccc3CC[C@H]2C1c1ccccc1 (stereo partly specified),63.5 µM (inactive),> 100 µM (inactive),16.1 µM (inactive),27,85.5 µM (inactive),47.9 µM (inactive),35.7 µM (inactive),35.3 µM (inactive),> 100 µM (inactive),53.5 µM (inactive),78.2 µM (inactive),> 100 µM (inactive),17.6 µM (inactive),27.9 µM (inactive),22.3 µM (inactive),86.5 µM (inactive),–
COc1ccccc1/C=C1\C(=O)N(C(=O)Cc2ccccc2)N=C1C,> 100 µM (inactive),> 100 µM (inactive),> 100 µM (inactive),> 100,–,> 100 µM (inactive),> 100 µM (inactive),> 100 µM (inactive),> 100 µM (inactive),> 100 µM (inactive),> 100 µM (inactive),> 100 µM (inactive),> 100 µM (inactive),> 100 µM (inactive),> 100 µM (inactive),> 100 µM (inactive),> 100 µM (inactive)
CC(C)(CN1CCCCC1)C(=O)/C=C/c1ccc(Cl)c(Cl)c1,1.38 µM (inactive),1.63 µM (inactive),1.71 µM (inactive),1.41,2 µM (inactive),1.95 µM (inactive),1.5 µM (inactive),2.45 µM (inactive),1.09 µM (active),1.37 µM (inactive),1.37 µM (inactive),1.8 µM (inactive),1.21 µM (inactive),1.71 µM (inactive),1.18 µM (inactive),2.07 µM (inactive),–
COc1cccc(Cc2c3cc(OC)ccc3cc[n+]2C)c1,> 100 µM (inactive),> 100 µM (inactive),26.6 µM (inactive),> 100,–,> 100 µM (inactive),–,> 100 µM (inactive),87.3 µM (inactive),53.2 µM (inactive),> 100 µM (inactive),36.2 µM (inactive),22.9 µM (inactive),–,21.4 µM (inactive),–,> 100 µM (inactive)
COc1cc2c(cc1OC)C(=O)Cc1ccc(OC)c(OC)c1CN(C)CC2,> 100 µM (inactive),> 100 µM (inactive),> 100 µM (inactive),> 100,> 100 µM (inactive),> 100 µM (inactive),> 100 µM (inactive),–,> 100 µM (inactive),> 100 µM (inactive),> 100 µM (inactive),> 100 µM (inactive),> 100 µM (inactive),> 100 µM (inactive),> 100 µM (inactive),> 100 µM (inactive),> 100 µM (inactive)
CSc1nc2c(nc(C)c(=O)n2C2OCC(OC(C)=O)C(OC(C)=O)C2OC(C)=O)c(=O)[nH]1 (stereo unspecified),> 100 µM (inactive),> 100 µM (inactive),> 100 µM (inactive),> 100,> 100 µM (inactive),> 100 µM (inactive),> 100 µM (inactive),> 100 µM (inactive),> 100 µM (inactive),> 100 µM (inactive),> 100 µM (inactive),> 100 µM (inactive),> 100 µM (inactive),–,> 100 µM (inactive),–,88.5 µM (inactive)
C/C=C(\NC(=O)C(CCCCN)NC(=O)C(C)NC(=O)C1CSC(C)C(NC(=O)C2CSCC(NC(=O)C(C)NC(=O)C(N)C(C)CC)C(=O)NC(CCCCN)C(=O)NC(Cc3ccccc3)C(=O)NC(CC(C)C)C(=O)N2)C(=O)N2CCCC2C(=O)NCC(=O)N1)C(=O)NCC(=O)NC1CSCC2NC(=O)C(Cc3ccc(O)cc3)NC(=O)C(CSC=CNC2=O)NC(=O)C(CC(N)=O)NC(=O)C(Cc2ccccc2)NC1=O (stereo unspecified),35.6 µM (inactive),> 100 µM (inactive),> 100 µM (inactive),> 100,> 100 µM (inactive),< 0.01 µM (active),> 100 µM (inactive),> 100 µM (inactive),> 100 µM (inactive),> 100 µM (inactive),> 100 µM (inactive),33.4 µM (inactive),–,–,–,> 100 µM (inactive),–
CCOC(=O)[C@H]1Nc2ccccc2C2c3ccccc3CC21 (stereo partly specified),> 100 µM (inactive),24.4 µM (inactive),79.6 µM (inactive),49,> 100 µM (inactive),> 100 µM (inactive),64.4 µM (inactive),49 µM (inactive),–,> 100 µM (inactive),36.8 µM (inactive),> 100 µM (inactive),16.4 µM (inactive),> 100 µM (inactive),22 µM (inactive),> 100 µM (inactive),> 100 µM (inactive)
Cc1nc2ccncc2[nH]1,> 100 µM (inactive),> 100 µM (inactive),> 100 µM (inactive),> 100,> 100 µM (inactive),> 100 µM (inactive),> 100 µM (inactive),> 100 µM (inactive),> 100 µM (inactive),> 100 µM (inactive),> 100 µM (inactive),> 100 µM (inactive),–,> 100 µM (inactive),> 100 µM (inactive),> 100 µM (inactive),> 100 µM (inactive)
COC1C(CN[N+](=O)CC2OC3OC(C)(C)OC3C2OC)OC2OC(C)(C)OC21 (stereo unspecified),> 100 µM (inactive),> 100 µM (inactive),> 100 µM (inactive),> 100,> 100 µM (inactive),> 100 µM (inactive),> 100 µM (inactive),> 100 µM (inactive),> 100 µM (inactive),> 100 µM (inactive),> 100 µM (inactive),> 100 µM (inactive),–,> 100 µM (inactive),> 100 µM (inactive),> 100 µM (inactive),> 100 µM (inactive)
CN(C)[C@@H]1C(O)=C(C(N)=O)C(=O)[C@@]2(O)C(O)=C3C(=O)c4c(O)cccc4C[C@H]3C[C@@H]12,2.31 µM (inactive),2.45 µM (inactive),2 µM (inactive),4.8,2.1 µM (inactive),2 µM (inactive),1.77 µM (inactive),1.7 µM (inactive),2.37 µM (inactive),2.17 µM (inactive),3.11 µM (inactive),1.73 µM (inactive),2.13 µM (inactive),–,–,2 µM (inactive),1.98 µM (inactive)
O=C(Cc1ccccc1)NN1C(=O)C(Cl)C1c1ccc([N+](=O)[O-])cc1 (stereo unspecified),> 100 µM (inactive),53.2 µM (inactive),53.5 µM (inactive),45.5,> 100 µM (inactive),> 100 µM (inactive),> 100 µM (inactive),> 100 µM (inactive),> 10 µM (inactive),> 100 µM (inactive),> 100 µM (inactive),> 100 µM (inactive),25.1 µM (inactive),> 100 µM (inactive),76.4 µM (inactive),–,> 100 µM (inactive)
NC(CCCC(N)P(=O)(O)O)P(=O)(O)O (stereo unspecified),> 100 µM (inactive),> 100 µM (inactive),> 100 µM (inactive),> 100,> 100 µM (inactive),–,> 100 µM (inactive),> 100 µM (inactive),> 100 µM (inactive),> 100 µM (inactive),> 100 µM (inactive),–,> 100 µM (inactive),> 100 µM (inactive),> 100 µM (inactive),> 100 µM (inactive),> 100 µM (inactive)
COC(=O)CCC(NC(=S)N/N=C/c1ccccn1)C(=O)OC (stereo unspecified),> 100 µM (inactive),> 100 µM (inactive),> 100 µM (inactive),> 100,> 100 µM (inactive),> 100 µM (inactive),> 100 µM (inactive),> 100 µM (inactive),> 100 µM (inactive),> 100 µM (inactive),> 100 µM (inactive),> 100 µM (inactive),> 100 µM (inactive),> 100 µM (inactive),> 100 µM (inactive),> 100 µM (inactive),–
COC(=O)c1ccc(CS(=O)(=O)c2ccccc2)cc1,> 100 µM (inactive),> 100 µM (inactive),> 100 µM (inactive),39.5,> 100 µM (inactive),> 100 µM (inactive),59.4 µM (inactive),61.7 µM (inactive),> 100 µM (inactive),> 100 µM (inactive),45.1 µM (inactive),> 100 µM (inactive),–,> 100 µM (inactive),> 100 µM (inactive),> 100 µM (inactive),> 100 µM (inactive)
O=C1CC(O)(c2ccccc2)C(c2ccccc2)=C1c1ccccc1 (stereo unspecified),45 µM (inactive),25.2 µM (inactive),35.9 µM (inactive),32.3,44 µM (inactive),38.2 µM (inactive),17.6 µM (inactive),32.4 µM (inactive),30.1 µM (inactive),–,94.4 µM (inactive),37.7 µM (inactive),17.7 µM (inactive),–,31.5 µM (inactive),–,31.3 µM (inactive)
COc1ccc(/C(=N/NC(N)=O)C2(O)C(=O)Nc3ccc([N+](=O)[O-])cc32)cc1 (stereo unspecified),15.7 µM (inactive),19.6 µM (inactive),17 µM (inactive),20.7,31 µM (inactive),28.2 µM (inactive),23 µM (inactive),–,11.6 µM (inactive),> 10 µM (inactive),22.8 µM (inactive),18.5 µM (inactive),21.8 µM (inactive),45.7 µM (inactive),21.1 µM (inactive),15.7 µM (inactive),24.2 µM (inactive)

# Source: ChEMBL document CHEMBL1201862, “PubChem BioAssay data set” (2004)
